TGI and GI50 data for nine compounds are collected here from PubChem BioAssay (NCI).

Test systems include A498 renal; KM12 colon; M14 melanoma; COLO 205 colon; SNB-75 CNS; OVCAR-4 ovarian; MALME-3M melanoma; IGROV1 ovarian; HL-60(TB) leukemia; SK-MEL-5 melanoma.
Common to all, as to assay: DTP human tumour cell line panel, 48 h

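Compound exposure: 48 hours, 5 concentrations, 96-well plates. Here, GI50 denotes the concentration required for 50% inhibition of growth. TGI: concentration producing complete growth inhibition.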

As usually defined, the TGI is the concentration at which net growth stops. On to `S=c1nc(Oc2ccc(Cl)c(Cl)c2)[nH]c(=S)[nH]1`, for which the TGI in the experiment with A498 renal is 77.6 µM; in the experiment with KM12 colon, 33.6 µM; with M14 melanoma it was above 100 µM; in the experiment on COLO 205 colon, above 60.4 µM; in the experiment with SNB-75 CNS, above 84.5 µM; in the experiment with OVCAR-4 ovarian, above 82.2 µM. Also, the TGI with MALME-3M melanoma was above 71.3 µM; in the experiment with IGROV1 ovarian, above 92.3 µM; with HL-60(TB) leukemia it was above 100 µM; in the experiment with SK-MEL-5 melanoma, above 55.6 µM.

A word on the GI50: it is the concentration at which growth is held to half of that of the control. Regarding `CCN1C(=O)N(CC)C2C1NN=c1s/c(=C3\C(=O)N(CC(C)C)c4ccccc43)c(=O)n12` (stereo unspecified), the GI50 in the experiment with A498 renal was 197 nM; in the experiment on KM12 colon, 418 nM; with M14 melanoma, 445 nM; in the experiment on COLO 205 colon, 401 nM; in the experiment on SNB-75 CNS it was 268 nM; in the experiment on OVCAR-4 ovarian, 1.23 µM. The GI50 in the experiment with MALME-3M melanoma was 0.885 µM; in the experiment on IGROV1 ovarian, 808 nM; in the experiment on HL-60(TB) leukemia, 340 nM; in the experiment with SK-MEL-5 melanoma, 436 nM. The TGI in the experiment on A498 renal is 0.875 µM; in the experiment with KM12 colon, above 100 µM; with M14 melanoma, above 100 µM; with COLO 205 colon, 2.32 µM; with SNB-75 CNS, 3.82 µM; in the experiment on OVCAR-4 ovarian it was above 100 µM. In addition, the TGI was above 77.7 µM in the experiment on MALME-3M melanoma, above 55.7 µM with IGROV1 ovarian, 1.64 µM in the experiment with HL-60(TB) leukemia and above 100 µM in the experiment with SK-MEL-5 melanoma.

With `N=C1c2nc3n(c2C(=O)c2nc4n(c21)CCCC4)CCCC3`, the GI50 with A498 renal was 727 nM; in the experiment with KM12 colon, 16600 nM; in the experiment on M14 melanoma it was 1820 nM; in the experiment with COLO 205 colon, 1830 nM; with SNB-75 CNS, 1830 nM; in the experiment with OVCAR-4 ovarian, 24.7 µM. Moreover, the GI50 in the experiment on MALME-3M melanoma is 1.7 µM; with IGROV1 ovarian, 41600 nM; in the experiment with HL-60(TB) leukemia, 31000 nM; with SK-MEL-5 melanoma, 431 nM. Also, the TGI with A498 renal is 8.16 µM; in the experiment on KM12 colon, above 100 µM; with M14 melanoma, 3.29 µM; in the experiment on COLO 205 colon, 3.39 µM; in the experiment with SNB-75 CNS, 3.57 µM; in the experiment on OVCAR-4 ovarian, above 100 µM. Further, the TGI was 3.7 µM in the experiment with MALME-3M melanoma, above 100 µM in the experiment on IGROV1 ovarian, above 84.3 µM in the experiment with HL-60(TB) leukemia and 0.864 µM in the experiment with SK-MEL-5 melanoma.

Consider `Cn1ccc2c(NCCN)c3c(c(NCCN)c21)C(=O)c1ccccc1C3=O`, for which the GI50 with A498 renal was 2310 nM; in the experiment with KM12 colon it was 551 nM; in the experiment with M14 melanoma, 2320 nM; in the experiment with COLO 205 colon, 24400 nM; in the experiment on SNB-75 CNS it was 18900 nM; in the experiment with OVCAR-4 ovarian, 9.46 µM. Further, the GI50 was 3.67 µM with MALME-3M melanoma, 824 nM in the experiment with IGROV1 ovarian, 2910 nM with HL-60(TB) leukemia and 2190 nM in the experiment with SK-MEL-5 melanoma. In addition, the TGI is 4.87 µM with A498 renal; 5.71 µM in the experiment on KM12 colon; 8.68 µM in the experiment with M14 melanoma; 68.4 µM with COLO 205 colon; 44.5 µM in the experiment with SNB-75 CNS; 30.8 µM with OVCAR-4 ovarian. Moreover, the TGI in the experiment on MALME-3M melanoma is 15.2 µM; in the experiment with IGROV1 ovarian it was above 31.8 µM; with HL-60(TB) leukemia it was 64.1 µM; in the experiment with SK-MEL-5 melanoma it was 4.99 µM.

In the case of `CC(=O)NC1=C(Nc2ccc(C)cc2)C(=O)c2ccccc2C1=O`, the TGI with A498 renal was above 75 µM; in the experiment with KM12 colon it was above 75 µM; with M14 melanoma, 25.3 µM; with COLO 205 colon, 45.3 µM; with SNB-75 CNS, 22.6 µM; with OVCAR-4 ovarian it was 46.8 µM. For the same compound, the TGI was 22.8 µM in the experiment on MALME-3M melanoma, 50.8 µM in the experiment with IGROV1 ovarian, 41.1 µM with HL-60(TB) leukemia and 20.4 µM with SK-MEL-5 melanoma.

Turning to `C=C1CC[C@@]2(C#N)[C@H]3[C@H](CC[C@@H]2C)[C@@H](C)C[C@@H](CC(C)(C)C#N)[C@H]13`, the GI50 is 6600 nM in the experiment on A498 renal; 471 nM with KM12 colon; 1480 nM in the experiment on M14 melanoma; 1610 nM in the experiment on COLO 205 colon; 215 nM with SNB-75 CNS; 2.14 µM in the experiment on OVCAR-4 ovarian. For the same compound, the GI50 is 5.23 µM in the experiment on MALME-3M melanoma, 4770 nM in the experiment with IGROV1 ovarian, 2480 nM with HL-60(TB) leukemia and 1540 nM in the experiment with SK-MEL-5 melanoma. For the same compound, the concentration for total growth inhibition (TGI) with A498 renal was 58.1 µM; in the experiment on KM12 colon, 18.9 µM; in the experiment on M14 melanoma, 12.5 µM; with COLO 205 colon, 14.4 µM; in the experiment with SNB-75 CNS it was 0.705 µM; in the experiment with OVCAR-4 ovarian it was 41 µM. Besides, the total growth inhibition concentration (TGI) in the experiment on MALME-3M melanoma is 40.8 µM; in the experiment with IGROV1 ovarian, 59.4 µM; in the experiment on HL-60(TB) leukemia, 29.5 µM; with SK-MEL-5 melanoma, 12.9 µM.

As for `Clc1ccc(-n2nnc(C3=NCCCN3)c2-c2ccccc2)cc1`, the TGI in the experiment on A498 renal, in the experiment on KM12 colon, in the experiment on M14 melanoma, in the experiment on COLO 205 colon, with SNB-75 CNS and in the experiment with OVCAR-4 ovarian was above 100 µM each time. For the same compound, the TGI in the experiment on MALME-3M melanoma, with IGROV1 ovarian, in the experiment on HL-60(TB) leukemia and in the experiment on SK-MEL-5 melanoma was above 100 µM in each case.

As to `Cc1ccccc1CN1CC2=C(CCN(Cc3ccccc3)C2=O)N2CCN=C12`, the TGI in the experiment on A498 renal, with KM12 colon, in the experiment on M14 melanoma, in the experiment on COLO 205 colon, in the experiment with SNB-75 CNS and with OVCAR-4 ovarian was above 100 µM each time. Moreover, the TGI with MALME-3M melanoma was above 100 µM; in the experiment on IGROV1 ovarian, above 100 µM; in the experiment on HL-60(TB) leukemia, above 100 µM; with SK-MEL-5 melanoma, above 64.7 µM. In the experiment on MALME-3M melanoma, the GI50 was 9.84 µM.

On to `Cc1cc(O)c(C(=O)CC2(O)C(=O)Nc3c(Cl)cc(Cl)cc32)c(=O)o1` (stereo unspecified), for which the TGI was above 100 µM with A498 renal; above 100 µM in the experiment on KM12 colon; above 100 µM in the experiment with M14 melanoma; above 100 µM with COLO 205 colon; 95.1 µM with SNB-75 CNS; above 100 µM with OVCAR-4 ovarian. For the same compound, the concentration for total growth inhibition (TGI) in the experiment on MALME-3M melanoma, in the experiment with IGROV1 ovarian, in the experiment on HL-60(TB) leukemia and in the experiment on SK-MEL-5 melanoma was above 100 µM each time.
